Measurements as given in patent publication US8163269B2, “Bioactive stents for type II diabetics and methods for use thereof” (priority 2004, dated 2012).
No end group written: not given here.

How the values were obtained:
ECs = test: adhesion assay with peptides conjugated to PEA polymer; format: cell-based, Human; parameters: key to adhesion assay microscopic observation, cell shape: r = round; s = spindly; sp = spread; settings: for adhesion relative to basal levels: assays 1 and 2; for ability of peptide to bind to cells after conjugation / adhesion of ECs compared to SMCs on conjugated peptide versus unconjugated PEA-H polymer: peptide conjugated to PEA-H polymer
Protocol: (§1) The attachment factor, in a phosphate buffered saline (PBS) solution, was coated onto a non-tissue culture dish and allowed to adsorb overnight at 4° C. The following day the plate was blocked for 1 hour at room temperature with heat-inactivated, 0.2% bovine serum albumin (BSA) solution (in PBS) to prevent non-specific attachment. A timed adhesion assay was then conducted. The assay includes negative control wells coated only with PBS and positive control wells coated with fibronectin. So far, none of the adhesion factors tested has surpassed the cell adhesion and cell spreading induced by fibronectin. In addition to adhesion, spreading is also an important consideration in determining the suitability of a substrate. If the cells are not able to spread, it is unlikely that the cells will proliferate on that surface.
The first conjugation was done to the PEA-H version of the polymer (acid) since this polymer has suitable sites for conjugation. The peptides can be covalently bound to this polymer via a wide variety of suitable functional groups. For example, when the biodegradable polymer is a poly(ester amide) (PEA) containing Lysine residues, the carboxyl groups from the Lysine residues can be used to react with a complementary moiety on the peptide, such as an hydroxy, amino, thio moiety, and the like (5). Specifically, the PEA-H polymer with free COOH reacts with water soluble carbodiimide (WSC) and N-Hydroxysuccinimide (HOSu) to produce an activated ester, which, in turn, reacts with an amino functional group of a peptide to provide an amide linkage (FIG. 6B). By using a fluorescent dansyl-lysine (FIG. 5), the optimal reaction conditions for activation and conjugation were determined (FIG. 6A).
The conjugation of CS5 and GREDVDY peptides to the polymer was then performed using the same protocol (FIG. 6B).
A similar protocol (see flow chart FIG. 6B) was used to conjugate combinations of the acid polymer with PEA polymer of structure (I) containing acetylated ends and benzylated COOH groups, (PEA-AcBz) and PEA-TEMPO (50/50 and 10/90), respectively. By combining the conjugatable acid form with the other polymers, a determination could be made whether the presence of the recruitment peptide on the polymer conferred an advantage in EC recruitment.
Microscopic observations taken at 2 h, 4 h and 6 h from duplicate wells from two representative adhesion assays are summarized in Table 2 below.

[1] = test system: endothelial cells (ECs), HCAEC=Human Coronary Artery Endothelial Cells; test: in vitro adhesion assay, attachment factor adsorbed onto non-tissue culture dish; format: cell-based; settings: for specificity of cell adhesion, ECs over SMCs: HCAEC versus HASMC, adsorbed peptide; for adhesion data among bioligands tested / cell adhesion and cell spreading compared with fibronectin positive control: adsorbed attachment factor
Excerpt: Cell Recruitment to Bioactive Agents To select appropriate bioligands for use as recruitment factors in stent applications, an in vitro adhesion assay was developed. This assay can distinguish between endothelial cells (ECs) and smooth muscle cells (SMCs) to aid in selecting potential attachment factors. Both the ECs and SMCs used in these assays were purchased from Cambrex (Baltimore, Md.) (HASMC=Human Aortic Smooth Muscle Cells and HCAEC=Human Coronary Artery Endothelial Cells).
as §1
In addition to microscopic observations, cell adhesion was quantitated using an ATP assay. Data of a representative adhesion assay quantitation by ATP standard curve is shown in the graph in FIG. 4, which illustrates the comparative results obtained at 2, 4 and 6 hours into the assay. […] The cell spreading determined in microscopic observations may indicate that cell spreading can increase the overall degree of cell adhesion since more space is occupied by a well spread cell than by an adhered cell that has not spread on the surface, due to timing of data points or appropriateness of the substrate used. The ATP data are useful to support the observational findings of the adhesion assay but cannot replace the adhesion assay.

[2] = 2 h, 10/90 H/Bz (10% PEA-H and 90% PEA-Ac-Bz), Assay 1
[3] = 2 h, 10/90 H/Bz (10% PEA-H and 90% PEA-Ac-Bz), Assay 2
[4] = 2 h, 10/90 H/T (10% PEA-H and 90% PEA-Ac-TEMPO), Assay 1
[5] = 2 h, 10/90 H/T (10% PEA-H and 90% PEA-Ac-TEMPO), Assay 2
[6] = 2 h, 50/50 H/Bz (50% PEA-H and 50% PEA-Ac-Bz), Assay 1
[7] = 2 h, 50/50 H/Bz (50% PEA-H and 50% PEA-Ac-Bz), Assay 2
[8] = 2 h, 50/50 H/T (50% PEA-H and 50% PEA-Ac-TEMPO), Assay 1
[9] = 2 h, 50/50 H/T (50% PEA-H and 50% PEA-Ac-TEMPO), Assay 2
[10] = 4 h, 10/90 H/Bz (10% PEA-H and 90% PEA-Ac-Bz), Assay 1
[11] = 4 h, 10/90 H/Bz (10% PEA-H and 90% PEA-Ac-Bz), Assay 2
[12] = 4 h, 10/90 H/T (10% PEA-H and 90% PEA-Ac-TEMPO), Assay 1
[13] = 4 h, 10/90 H/T (10% PEA-H and 90% PEA-Ac-TEMPO), Assay 2
[14] = 4 h, 50/50 H/Bz (50% PEA-H and 50% PEA-Ac-Bz), Assay 1
[15] = 4 h, 50/50 H/Bz (50% PEA-H and 50% PEA-Ac-Bz), Assay 2
[16] = 4 h, 50/50 H/T (50% PEA-H and 50% PEA-Ac-TEMPO), Assay 1
[17] = 4 h, 50/50 H/T (50% PEA-H and 50% PEA-Ac-TEMPO), Assay 2
[18] = 6 h, 10/90 H/Bz (10% PEA-H and 90% PEA-Ac-Bz), Assay 1
[19] = 6 h, 10/90 H/Bz (10% PEA-H and 90% PEA-Ac-Bz), Assay 2
[20] = 6 h, 10/90 H/T (10% PEA-H and 90% PEA-Ac-TEMPO), Assay 1
[21] = 6 h, 10/90 H/T (10% PEA-H and 90% PEA-Ac-TEMPO), Assay 2
[22] = 6 h, 50/50 H/Bz (50% PEA-H and 50% PEA-Ac-Bz), Assay 1
[23] = 6 h, 50/50 H/Bz (50% PEA-H and 50% PEA-Ac-Bz), Assay 2
[24] = 6 h, 50/50 H/T (50% PEA-H and 50% PEA-Ac-TEMPO), Assay 1
[25] = 6 h, 50/50 H/T (50% PEA-H and 50% PEA-Ac-TEMPO), Assay 2

Conj REDV: GREDVDY peptide (SEQ ID NO:11) conjugated to PEA-H mixed with PEA-Ac-Bz or PEA-Ac-TEMPO polymer coating (also: conjugated to PEA polymer coating)
adhesion assay microscopic observation, % (ECs; [2]): 30%
adhesion assay microscopic observation, cell shape (ECs; [2]): r/s
adhesion assay microscopic observation, % (ECs; [3]): 30%
adhesion assay microscopic observation, cell shape (ECs; [3]): r/s/sp
adhesion assay microscopic observation, % (ECs; [4]): 30%
adhesion assay microscopic observation, cell shape (ECs; [4]): r/s
adhesion assay microscopic observation, % (ECs; [5]): 30%
adhesion assay microscopic observation, cell shape (ECs; [5]): r/s/sp
adhesion assay microscopic observation, % (ECs; [6]): 20-30%
adhesion assay microscopic observation, cell shape (ECs; [6]): r
adhesion assay microscopic observation, % (ECs; [7]): 30-40%
adhesion assay microscopic observation, cell shape (ECs; [7]): r/s/sp
adhesion assay microscopic observation, % (ECs; [8]): 20-30%
adhesion assay microscopic observation, cell shape (ECs; [8]): r
adhesion assay microscopic observation, % (ECs; [9]): 30%
adhesion assay microscopic observation, cell shape (ECs; [9]): r/s/sp
adhesion assay microscopic observation, % (ECs; [10]): 30-40%
adhesion assay microscopic observation, cell shape (ECs; [10]): r/s/sp
adhesion assay microscopic observation, % (ECs; [11]): 30-40%
adhesion assay microscopic observation, cell shape (ECs; [11]): s/sp
adhesion assay microscopic observation, % (ECs; [12]): 30-40%
adhesion assay microscopic observation, cell shape (ECs; [12]): s/sp
adhesion assay microscopic observation, % (ECs; [13]): 40%
adhesion assay microscopic observation, cell shape (ECs; [13]): s/sp
adhesion assay microscopic observation, % (ECs; [14]): 30%
adhesion assay microscopic observation, cell shape (ECs; [14]): s/sp
adhesion assay microscopic observation, % (ECs; [15]): 30-40%
adhesion assay microscopic observation, cell shape (ECs; [15]): s/sp
adhesion assay microscopic observation, % (ECs; [16]): 30%
adhesion assay microscopic observation, % (ECs; [17]): 30%
adhesion assay microscopic observation, cell shape (ECs; [17]): r/s/sp
adhesion assay microscopic observation, % (ECs; [18]): 30%
adhesion assay microscopic observation, cell shape (ECs; [18]): s/sp
adhesion assay microscopic observation, % (ECs; [19]): 30-40%
adhesion assay microscopic observation, cell shape (ECs; [19]): r/s/sp
adhesion assay microscopic observation, % (ECs; [20]): 30-40%
adhesion assay microscopic observation, cell shape (ECs; [20]): r/s/sp
adhesion assay microscopic observation, % (ECs; [21]): 40%
adhesion assay microscopic observation, cell shape (ECs; [21]): s/sp
adhesion assay microscopic observation, % (ECs; [22]): 30%
adhesion assay microscopic observation, cell shape (ECs; [22]): r/s
adhesion assay microscopic observation, % (ECs; [23]): 30-40%
adhesion assay microscopic observation, cell shape (ECs; [23]): r/s/sp
adhesion assay microscopic observation, % (ECs; [24]): 20%
adhesion assay microscopic observation, cell shape (ECs; [24]): r
adhesion assay microscopic observation, % (ECs; [25]): 30-40%
adhesion assay microscopic observation, cell shape (ECs; [25]): s/sp

GREDVDY
adhesion relative to basal levels (ECs; 10/90 PEA-H/PEA-TEMPO (H/T) conjugated to peptide): increased adhesion over basal levels
adhesion relative to basal levels (ECs; 50/50 PEA-H/PEA-Ac-Bz (H/Bz) conjugated to peptide): increased adhesion over basal levels
cell recruitment, complete evaluation of assays with conjugated peptides on polymer (ECs; Table 2 assays): more robust in cell recruitment than the longer (20 mer) CS5 peptide
ability of peptide to bind to cells after conjugation (ECs): did not alter their ability to bind to cells
adhesion of ECs compared to SMCs on conjugated peptide versus unconjugated PEA-H polymer (ECs): adhered significantly better to the conjugated peptides than on the unconjugated PEA-H polymer
specificity of cell adhesion, ECs over SMCs [1]: showed specificity for ECs over SMCs
adhesion data among bioligands tested [1]: gave the most promising adhesion data
cell adhesion and cell spreading compared with fibronectin positive control [1]: neither of these peptide sequences equaled the large molecule fibronectin in cell adhesion or spreading

GEEIQIGHIPREDVDYHLYP [CS5]
ability of peptide to bind to cells after conjugation (ECs): did not alter their ability to bind to cells
adhesion of ECs compared to SMCs on conjugated peptide versus unconjugated PEA-H polymer (ECs): adhered significantly better to the conjugated peptides than on the unconjugated PEA-H polymer
specificity of cell adhesion, ECs over SMCs [1]: showed specificity for ECs over SMCs
adhesion data among bioligands tested [1]: gave the most promising adhesion data
cell adhesion and cell spreading compared with fibronectin positive control [1]: neither of these peptide sequences equaled the large molecule fibronectin in cell adhesion or spreading

Conj CS5: CS5 peptide (SEQ ID NO:1) conjugated to PEA-H mixed with PEA-Ac-Bz or PEA-Ac-TEMPO polymer coating (GEEIQIGHIPREDVDYHLYP; also: conjugated to PEA polymer coating)
adhesion assay microscopic observation, % (ECs; [2]): 30%
adhesion assay microscopic observation, cell shape (ECs; [2]): r/s
adhesion assay microscopic observation, % (ECs; [3]): 30%
adhesion assay microscopic observation, cell shape (ECs; [3]): r/s
adhesion assay microscopic observation, % (ECs; [4]): 30%
adhesion assay microscopic observation, cell shape (ECs; [4]): r/s
adhesion assay microscopic observation, % (ECs; [5]): 30%
adhesion assay microscopic observation, cell shape (ECs; [5]): r/s/sp
adhesion assay microscopic observation, % (ECs; [6]): 20%
adhesion assay microscopic observation, cell shape (ECs; [6]): r
adhesion assay microscopic observation, % (ECs; [7]): 20-30%
adhesion assay microscopic observation, cell shape (ECs; [7]): r
adhesion assay microscopic observation, % (ECs; [8]): 20-30%
adhesion assay microscopic observation, cell shape (ECs; [8]): r/s
adhesion assay microscopic observation, % (ECs; [9]): 30%
adhesion assay microscopic observation, cell shape (ECs; [9]): r/s
adhesion assay microscopic observation, % (ECs; [10]): 40%
adhesion assay microscopic observation, cell shape (ECs; [10]): r/sp
adhesion assay microscopic observation, % (ECs; [11]): 30%
adhesion assay microscopic observation, cell shape (ECs; [11]): s/sp
adhesion assay microscopic observation, % (ECs; [12]): 30%
adhesion assay microscopic observation, cell shape (ECs; [12]): r/s/sp
adhesion assay microscopic observation, % (ECs; [13]): 30-40%
adhesion assay microscopic observation, cell shape (ECs; [13]): s/sp
adhesion assay microscopic observation, % (ECs; [14]): 30%
adhesion assay microscopic observation, cell shape (ECs; [14]): r
adhesion assay microscopic observation, % (ECs; [15]): 30%
adhesion assay microscopic observation, cell shape (ECs; [15]): r/s/sp
adhesion assay microscopic observation, % (ECs; [16]): 30%
adhesion assay microscopic observation, cell shape (ECs; [16]): r
adhesion assay microscopic observation, % (ECs; [17]): 30-40%
adhesion assay microscopic observation, cell shape (ECs; [17]): r/s/sp
adhesion assay microscopic observation, % (ECs; [18]): 30-40%
adhesion assay microscopic observation, cell shape (ECs; [18]): s/sp
adhesion assay microscopic observation, % (ECs; [19]): 30%
adhesion assay microscopic observation, cell shape (ECs; [19]): r/s/sp
adhesion assay microscopic observation, % (ECs; [20]): 30-40%
adhesion assay microscopic observation, cell shape (ECs; [20]): r/s/sp
adhesion assay microscopic observation, % (ECs; [21]): 30%
adhesion assay microscopic observation, cell shape (ECs; [21]): r/s/sp
adhesion assay microscopic observation, % (ECs; [22]): 20%
adhesion assay microscopic observation, cell shape (ECs; [22]): r
adhesion assay microscopic observation, % (ECs; [23]): 30%
adhesion assay microscopic observation, cell shape (ECs; [23]): r/s
adhesion assay microscopic observation, % (ECs; [24]): 20%
adhesion assay microscopic observation, cell shape (ECs; [24]): r
adhesion assay microscopic observation, % (ECs; [25]): 30%
adhesion assay microscopic observation, cell shape (ECs; [25]): r/s
